Here are results for one compound from patent US10071084B2, “Nanoparticle, method of preparating the same, and use of the nanoparticle” (Samsung Electronics Co., Ltd., priority 2013, dated 2018).

For this assay, the system named is HepG2 liver cancer cells. The experiment in a line: Cytotoxicity by released nanoparticles containing SRF and BSA: cell viability, CCK-8 kit. It counts as cell-based. Conditions: Homo sapiens, 50 μM SRF dissolved in DMSO, 3 hours incubation at 37° C., then 3 days in fresh medium, relative to DMSO-treated cells. The method, then:
Liposomes that were sonicated were incubated with cells to confirm the cell viability.
The liposomes of Example 4 were sonicated at a temperature of 25° C. for 16 minutes by using a pool-type sonicator (Branson).
The sonicated liposomes, unsonicated liposomes, 50 μM of SRF (Santa Cruz Biotechnology, Inc.) dissolved in dimethyl sulfoxide (DMSO) (Aldrich), or DMSO itself was added to about 5,000 HepG2 liver cancer cells, followed by being incubated at a temperature of 37° C. for 3 hours. Here, the medium used in the incubation was exchanged with fresh medium. The cells were incubated for at a temperature of 37° C. for 3 days, and number of the cells was counted by using a CCK-8 kit (Dojindo). The cell viability was relatively calculated with respect to the number of the cells that were treated with DMSO, and the results were shown in FIG. 7 (1: DMSO, 2: SRF dissolved in DMSO, 3: liposomes that are not sonicated, 4: liposomes that are sonicated for 16 minutes).

Structures are written as SMILES.

Regarding `CNC(=O)c1cc(Oc2ccc(NC(=O)Nc3ccc(Cl)c(C(F)(F)F)c3)cc2)ccn1` [SRF, sorafenib], the viability at 50 µM is approximately 36%.
